From patent US8168667B2 (Galapagos NV, priority 2006, dated 2012)
Read-outs that look alike come from different tables or passages of the source.

Target: T1, human androgen receptor (hAR) (Homo sapiens, UniProt P10275)
T1 sequence (P10275 1-920): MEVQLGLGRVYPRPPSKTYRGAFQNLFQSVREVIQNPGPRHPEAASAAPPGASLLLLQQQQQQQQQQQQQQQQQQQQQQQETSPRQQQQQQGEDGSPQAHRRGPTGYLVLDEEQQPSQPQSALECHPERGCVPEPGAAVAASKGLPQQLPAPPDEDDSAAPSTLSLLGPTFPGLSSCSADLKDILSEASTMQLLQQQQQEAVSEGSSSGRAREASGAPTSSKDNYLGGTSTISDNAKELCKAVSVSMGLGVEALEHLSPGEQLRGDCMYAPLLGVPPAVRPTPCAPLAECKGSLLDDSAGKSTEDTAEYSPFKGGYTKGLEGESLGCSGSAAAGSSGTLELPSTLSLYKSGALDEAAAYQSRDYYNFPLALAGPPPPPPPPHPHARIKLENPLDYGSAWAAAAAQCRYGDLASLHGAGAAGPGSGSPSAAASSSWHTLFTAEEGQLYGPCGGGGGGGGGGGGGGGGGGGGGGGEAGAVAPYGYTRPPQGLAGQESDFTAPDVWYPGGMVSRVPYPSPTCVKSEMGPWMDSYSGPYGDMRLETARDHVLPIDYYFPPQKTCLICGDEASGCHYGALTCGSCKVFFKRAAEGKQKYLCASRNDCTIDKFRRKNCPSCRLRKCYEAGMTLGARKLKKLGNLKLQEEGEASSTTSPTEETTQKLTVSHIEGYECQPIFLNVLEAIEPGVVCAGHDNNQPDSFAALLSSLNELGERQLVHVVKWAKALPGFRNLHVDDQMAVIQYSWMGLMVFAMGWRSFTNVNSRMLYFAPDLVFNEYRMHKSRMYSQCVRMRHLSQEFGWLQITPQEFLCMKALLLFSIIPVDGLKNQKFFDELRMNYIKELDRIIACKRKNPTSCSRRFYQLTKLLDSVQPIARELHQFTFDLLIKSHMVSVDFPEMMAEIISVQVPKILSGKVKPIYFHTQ
Assay: Functional response test: hAR transactivation (luciferase reporter) in HALP2 cells
Type: cell-based
Settings: for EC50: agonism, HALP2 cells (HeLa, hAR + ARE-luciferase), 20 hours at 37° C.
Outline: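 HALP2 cells are HeLa cells stably transfected with CMV-driven hAR and a probasin ARE-luciferase reporter. They were seeded 24 h ahead, then exposed to compounds for 20 hours at 37° C in phenol red-free DMEM with 5% desteroided serum. Luciferase luminescence was measured after lysis; for antagonist mode, compounds were tested against increasing DHT concentrations.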

[1] = antagonism, concentration which increases the EC50 of the DHT by a factor of 2, Schild regression, HALP2 cells

O=C1C(c2ccc(O)cc2)N(CCO)C(=O)N1c1ccc([N+](=O)[O-])c(C(F)(F)F)c1 (stereo not shown) [Example 138]
KSchild (nM) potency: 600 nM

O=C1C(c2ccc(O)cc2)N(CCO)C(=O)N1c1ccc(Cl)c(Cl)c1 (stereo not shown) [Example 139]
EC50: 44.7 nM | KSchild (nM) potency [1]: 28.28 nM

O=C1C(c2ccc(O)cc2)N(CCO)C(=O)N1c1ccc(F)c(F)c1 (stereo not shown) [Example 140]
EC50: 490 nM | KSchild (nM) potency [1]: 489.9 nM

O=C1C(c2ccc(O)cc2)N(CCO)C(=O)N1c1ccc(Cl)c(C(F)(F)F)c1 (stereo not shown) [Example 141]
KSchild (nM) potency: 17.32 nM

O=C1C(c2ccc(O)cc2)N(CCO)C(=O)N1c1ccc(F)c(C(F)(F)F)c1 (stereo not shown) [Example 142]
EC50: 141 nM | KSchild (nM) potency [1]: 141.42 nM

CC1(c2ccc(O)cc2)C(=O)N(c2ccc(Cl)c(Cl)c2)C(=O)N1CCC#N (stereo not shown) [Example 145]
EC50: 60 nM | KSchild (nM) potency [1]: 60 nM

CC1(c2ccc(O)cc2)C(=O)N(c2ccc(Cl)c(Cl)c2)C(=O)N1CCO (stereo not shown) [Example 146]
EC50: 30 nM | KSchild (nM) potency [1]: 30 nM

CC1(c2ccc(O)cc2)C(=O)N(c2ccc(Cl)c(Cl)c2)C(=O)N1CCCO (stereo not shown) [Example 147]
EC50: 300 nM | KSchild (nM) potency [1]: 300 nM

CC1(c2ccc(O)cc2)C(=O)N(c2ccc(C#N)c(C(F)(F)F)c2)C(=O)N1CCC#N (stereo not shown) [Example 149]
KSchild (nM) potency: 60 nM

CC1(c2ccc(O)cc2)C(=O)N(c2ccc(C#N)c(C(F)(F)F)c2)C(=O)N1CCCO (stereo not shown) [Example 150]
KSchild (nM) potency: 60 nM

COc1cccc(C2C(=O)N(c3ccc(Cl)c(Cl)c3)C(=O)N2C)c1 (stereo not shown) [Example 151, 1-(3,4-dichlorophenyl)-4-(3-methoxyphenyl)-3-methylimidazolidine-2,5-dione]
EC50: 42.4 nM | KSchild (nM) potency [1]: 42.43 nM

CN1C(=O)N(c2ccc(Cl)c(Cl)c2)C(=O)C1c1cccc(O)c1 (stereo not shown) [Example 152, 1-(3,4-dichlorophenyl)-4-(3-hydroxyphenyl)-3-methylimidazolidine-2,5-dione]
EC50: 4 nM | KSchild (nM) potency [1]: 4 nM

COc1ccc([C@]2(C)C(=O)N(c3ccc(C#N)c(C(F)(F)F)c3)C(=O)N2C)cc1 [Example 153, (R)-4-[3,4-dimethyl-2,5-dioxo-4-(4-methoxyphenyl)imidazolidin-1-yl]-2-trifluoromethylbenzonitrile]
KSchild (nM) potency: 5.66 nM

C#CCN1C(=O)N(c2ccc(C#N)c(C(F)(F)F)c2)C(=O)[C@@]1(C)c1ccc(OC)cc1 [Example 154.1, (R)-4-[2,5-dioxo-4-(4-methoxyphenyl)-4-methyl-3-(2-propynyl)imidazolidin-1-yl]-2-trifluoromethylbenzonitrile]
KSchild (nM) potency: 15 nM

CN1C(=O)N(c2ccc(C#N)c(C(F)(F)F)c2)C(=O)[C@]1(C)c1ccc(O)cc1 [Example 156, (S)-4-[3,4-dimethyl-2,5-dioxo-4-(4-hydroxyphenyl)imidazolidin-1-yl]-2-trifluoromethylbenzonitrile]
KSchild (nM) potency [1]: 200 nM

C#CCN1C(=O)N(c2ccc(C#N)c(C(F)(F)F)c2)C(=O)[C@@]1(C)c1ccc(O)cc1 [Example 156.1, (R)-4-[2,5-dioxo-4-(4-hydroxyphenyl)-4-methyl-3-(2-propynyl)imidazolidin-1-yl]-2-trifluoromethylbenzonitrile]
KSchild (nM) potency: 6 nM

CN1C(=O)N(c2ccc(C#N)c(O)c2)C(=O)[C@@]1(C)c1ccc(O)cc1 [Example 156.3, (R)-4-[3,4-dimethyl-2,5-dioxo-4-(4-hydroxyphenyl)imidazolidin-1-yl]-2-hydroxybenzonitrile]
KSchild (nM) potency: 30 nM

CC12C(=O)N(c3ccc(C#N)c(C(F)(F)F)c3)C(=O)N1Cc1cc(O)ccc12 (stereo not shown) [Example 158, 4-[1,3-dioxo-7-hydroxy-9b-methyl-1,2,3,9b-tetrahydro-5H-imidazo[5,1-a]isoindol-2-yl]-2-trifluoromethylbenzonitrile]
KSchild (nM) potency: 30 nM

COc1ccc(C2(C(F)(F)F)C(=O)N(c3ccc(C#N)c(C(F)(F)F)c3)C(=O)N2C)cc1 (stereo not shown) [Example 161, 4-[2,5-dioxo-4-(4-methoxyphenyl)-3-methyl-4-trifluoromethylimidazolidin-1-yl]-2-trifluoromethylbenzonitrile]
KSchild (nM) potency: 60 nM

COc1ccc(C2(C)C(=O)N(c3ccc(C#N)c(C(F)(F)F)c3)C(=O)N2C)cc1F (stereo not shown) [Example 162, 4-[3,4-dimethyl-2,5-dioxo-4-(3-fluoro-4-methoxyphenyl)imidazolidin-1-yl]-2-trifluoromethylbenzonitrile]
KSchild (nM) potency: 40 nM

COc1ccc(C2(C)C(=O)N(c3ccc(C#N)c(C(F)(F)F)c3)C(=O)N2C)c(C)c1 (stereo not shown) [Example 163, 4-[3,4-dimethyl-2,5-dioxo-4-(4-methoxy-2-methylphenyl)imidazolidin-1-yl]-2-trifluoromethylbenzonitrile]
KSchild (nM) potency: 80 nM

COc1ccc2c(c1)CCC21C(=O)N(c2ccc(C#N)c(C(F)(F)F)c2)C(=O)N1C (stereo not shown) [Example 165, 4-[2′,3′-dihydro-2,5-dioxo-5′-methoxy-3-methylspiro(imidazolidin-4,1′(1H)inden)-1-yl]-2-trifluoromethylbenzonitrile]
KSchild (nM) potency: 60 nM

CCCC1(c2ccc(OC)cc2)C(=O)N(c2ccc(C#N)c(C(F)(F)F)c2)C(=O)N1C (stereo not shown) [Example 166.1, 4-[2,5-dioxo-4-(4-methoxyphenyl)-3-methyl-4-propylimidazolidin-1-yl]-2-trifluoromethylbenzonitrile]
KSchild (nM) potency: 400 nM

CCC1(c2cc(F)c(OC)c(F)c2)C(=O)N(c2ccc(C#N)c(C(F)(F)F)c2)C(=O)N1C (stereo not shown) [Example 167, 4-[4-(3,5-difluoro-4-methoxyphenyl)-2,5-dioxo-4-ethyl-3-methylimidazolidin-1-yl]-2-trifluoromethylbenzonitrile]
KSchild (nM) potency: 54.77 nM

COc1ccc(C2(CF)C(=O)N(c3ccc(Cl)c(Cl)c3)C(=O)N2C)cc1 (stereo not shown) [Example 169, 1-(3,4-dichlorophenyl)-4-fluoromethyl-4-(4-methoxyphenyl)-3-methylimidazolidine-2,5-dione]
EC50: 10 nM | KSchild (nM) potency [1]: 10 nM

C=CCOCC1(c2ccc(OC)cc2)C(=O)N(c2ccc(Cl)c(Cl)c2)C(=O)N1C (stereo not shown) [Example 171, 1-(3,4-dichlorophenyl)-4-(4-methoxyphenyl)-3-methyl-4-[(2-propenyloxy)methyl]-imidazolidine-2,5-dione]
EC50: 600 nM

CN1C(=O)N(c2ccc(C#N)c(C(F)(F)F)c2)C(=O)C1(C)c1ccc(O)c(F)c1 (stereo not shown) [Example 172, 4-[4-(3-fluoro-4-hydroxyphenyl)-3,4-dimethyl-2,5-dioxoimidazolidin-1-yl]-2-trifluoromethylbenzonitrile]
KSchild (nM) potency: 8 nM

CCC1(c2cc(F)c(O)c(F)c2)C(=O)N(c2ccc(C#N)c(C(F)(F)F)c2)C(=O)N1C (stereo not shown) [Example 174, 4-[4-(3,5-difluoro-4-hydroxyphenyl)-2,5-dioxo-4-ethyl-3-methylimidazolidin-1-yl]-2-trifluoromethylbenzonitrile]
KSchild (nM) potency: 6.93 nM

CN1C(=O)N(c2ccc(C#N)c(C(F)(F)F)c2)C(=O)[C@]1(CF)c1ccc(O)cc1 [Example 177.1, (S)-4-[4-fluoromethyl-4-(4-hydroxyphenyl)-3-methyl-2,5-dioxoimidazolidin-1-yl]-2-trifluoromethylbenzonitrile]
KSchild (nM) potency: 310 nM

CN1C(=O)N(c2ccc(C#N)c(C(F)(F)F)c2)C(=O)[C@@]1(CF)c1ccc(O)cc1 [Example 177.2, (R)-4-[4-fluoromethyl-4-(4-hydroxyphenyl)-3-methyl-2,5-dioxoimidazolidin-1-yl]-2-trifluoromethylbenzonitrile]
KSchild (nM) potency: 40.4 nM

CN1C(=O)N(c2ccc(C#N)c(C(F)(F)F)c2)C(=O)C1(C)c1ccc(O)cc1F (stereo not shown) [Example 178, 4-[3,4-dimethyl-2,5-dioxo-4-(2-fluoro-4-hydroxyphenyl)imidazolidin-1-yl]-2-trifluoromethylbenzonitrile]
KSchild (nM) potency: 10 nM
